System: patients with narcolepsy type 1 or type 2
Assay: Safety and tolerability (TEAEs, discontinuations), 12-week phase 3 study in narcolepsy
Format: in vivo, human
Conditions: for Anxiety, incidence % / Anxiety, incidence n / Any TEAE, incidence % / Any TEAE, incidence n / Constipation, incidence % / Constipation, incidence n / Decreased appetite, incidence % / Decreased appetite, incidence n / Diarrhea, incidence % / Diarrhea, incidence n / Discontinuations due to TEAEs, incidence % / Discontinuations due to TEAEs, incidence n / Dizziness, incidence % / Dizziness, incidence n / Dry mouth, incidence % / Dry mouth, incidence n / Dyspepsia, incidence % / Dyspepsia, incidence n / Fatigue, incidence n / Headache, incidence % / Headache, incidence n / Heart rate increased, incidence n / Influenza, incidence % / Influenza, incidence n / Insomnia, incidence % / Insomnia, incidence n / Nasopharyngitis, incidence % / Nasopharyngitis, incidence n / Nausea, incidence % / Nausea, incidence n / Serious TEAEs, incidence n / Upper respiratory tract infection, incidence % / Upper respiratory tract infection, incidence n / Weight Increased, incidence % / Weight Increased, incidence n / Weight decreased, incidence % / Weight decreased, incidence n / Fatigue, incidence % / Serious TEAEs, incidence % / Heart rate increased, incidence %: safety population
Procedure: The study was a 12-week, double-blind, randomized, placebo-controlled, parallel-group study. Patients were randomized (1:1:1:1) to receive placebo or APC 75, 150, or 300 mg; randomization was stratified by the presence or absence of cataplexy.
Co-primary endpoints were change from baseline to week 12 in MWT mean sleep latency and ESS score. The key secondary endpoint was the percentage of patients who reported improvement on the Patient Global Impression of Change (PGI-C) (Guy, ECDEU assessment manual for psychopharmacology, revised. US Department of Health, Education, and Welfare publication (ADM 76-338). Rockville, MD: National Institute of Mental Health; 1976) at week 12. Other secondary and exploratory endpoints included changes on function and quality-of-life and changes in the number of cataplexy attacks per week. Safety evaluation included adverse events, laboratory tests, and vital signs.

NC(=O)OC[C@H](N)Cc1ccccc1 [JZP-110, (R)-2-amino-3-phenylpropyl carbamate]
Discontinuation rate (75 mg): 16.9%
Anxiety, incidence % (75 mg): (1.7) %
Anxiety, incidence n (75 mg): 1
Any TEAE, incidence % (75 mg): (57.6) %
Any TEAE, incidence n (75 mg): 34
Constipation, incidence % (75 mg): (5.1) %
Constipation, incidence n (75 mg): 3
Decreased appetite, incidence % (75 mg): (8.5) %
Decreased appetite, incidence n (75 mg): 5
Diarrhea, incidence % (75 mg): (3.4) %
Diarrhea, incidence n (75 mg): 2
Discontinuations due to TEAEs, incidence % (75 mg): (1.7) %
Discontinuations due to TEAEs, incidence n (75 mg): 1
Dizziness, incidence % (75 mg): (3.4) %
Dizziness, incidence n (75 mg): 2
Dry mouth, incidence % (75 mg): (5.1) %
Dry mouth, incidence n (75 mg): 3
Dyspepsia, incidence % (75 mg): (1.7) %
Dyspepsia, incidence n (75 mg): 1
Fatigue, incidence n (75 mg): 0
Headache, incidence % (75 mg): (10.2) %
Headache, incidence n (75 mg): 6
Heart rate increased, incidence n (75 mg): 0
Influenza, incidence % (75 mg): (3.4) %
Influenza, incidence n (75 mg): 2
Insomnia, incidence % (75 mg): (3.4) %
Insomnia, incidence n (75 mg): 2
Nasopharyngitis, incidence % (75 mg): (8.5) %
Nasopharyngitis, incidence n (75 mg): 5
Nausea, incidence % (75 mg): (5.1) %
Nausea, incidence n (75 mg): 3
Serious TEAEs, incidence n (75 mg): 0
Upper respiratory tract infection, incidence % (75 mg): (1.7) %
Upper respiratory tract infection, incidence n (75 mg): 1
Weight Increased, incidence % (75 mg): (3.4) %
Weight Increased, incidence n (75 mg): 2
Weight decreased, incidence % (75 mg): (1.7) %
Weight decreased, incidence n (75 mg): 1
Discontinuation rate (150 mg): 13.6%
Serious TEAEs (events) (150 mg, one patient, deemed not related by the investigator): 2 serious TEAEs of non-cardiac chest pain and anxiety
Anxiety, incidence % (150 mg): (5.1) %
Anxiety, incidence n (150 mg): 3
Any TEAE, incidence % (150 mg): (79.7) %
Any TEAE, incidence n (150 mg): 47
Constipation, incidence % (150 mg): (1.7) %
Constipation, incidence n (150 mg): 1
Decreased appetite, incidence % (150 mg): (8.5) %
Decreased appetite, incidence n (150 mg): 5
Diarrhea, incidence % (150 mg): (5.1) %
Diarrhea, incidence n (150 mg): 3
Discontinuations due to TEAEs, incidence % (150 mg): (5.1) %
Discontinuations due to TEAEs, incidence n (150 mg): 3
Dizziness, incidence % (150 mg): (1.7) %
Dizziness, incidence n (150 mg): 1
Dry mouth, incidence % (150 mg): (6.8) %
Dry mouth, incidence n (150 mg): 4
Dyspepsia, incidence % (150 mg): (3.4) %
Dyspepsia, incidence n (150 mg): 2
Fatigue, incidence % (150 mg): (3.4) %
Fatigue, incidence n (150 mg): 2
Headache, incidence % (150 mg): (23.7) %
Headache, incidence n (150 mg): 14
Heart rate increased, incidence n (150 mg): 0
Influenza, incidence % (150 mg): (1.7) %
Influenza, incidence n (150 mg): 1
Insomnia, incidence n (150 mg): 0
Nasopharyngitis, incidence % (150 mg): (13.6) %
Nasopharyngitis, incidence n (150 mg): 8
Nausea, incidence % (150 mg): (10.2) %
Nausea, incidence n (150 mg): 6
Serious TEAEs, incidence % (150 mg): (1.7) %
Serious TEAEs, incidence n (150 mg): 1
Upper respiratory tract infection, incidence % (150 mg): (6.8) %
Upper respiratory tract infection, incidence n (150 mg): 4
Weight Increased, incidence n (150 mg): 0
Weight decreased, incidence % (150 mg): (1.7) %
Weight decreased, incidence n (150 mg): 1
Discontinuation rate (300 mg): 27.1%
Discontinuation due to adverse events (300 mg, n=5): 8.5%
Anxiety, incidence % (300 mg): (8.5) %
Anxiety, incidence n (300 mg): 5
Any TEAE, incidence % (300 mg): (67.8) %
Any TEAE, incidence n (300 mg): 40
Constipation, incidence n (300 mg): 0
Decreased appetite, incidence % (300 mg): (15.3) %
Decreased appetite, incidence n (300 mg): 9
Diarrhea, incidence % (300 mg): (5.1) %
Diarrhea, incidence n (300 mg): 3
Discontinuations due to TEAEs, incidence % (300 mg): (8.5) %
Discontinuations due to TEAEs, incidence n (300 mg): 5
Dizziness, incidence % (300 mg): (5.1) %
Dizziness, incidence n (300 mg): 3
Dry mouth, incidence % (300 mg): (10.2) %
Dry mouth, incidence n (300 mg): 6
Dyspepsia, incidence % (300 mg): (5.1) %
Dyspepsia, incidence n (300 mg): 3
Fatigue, incidence % (300 mg): (5.1) %
Fatigue, incidence n (300 mg): 3
Headache, incidence % (300 mg): (30.5) %
Headache, incidence n (300 mg): 18
Heart rate increased, incidence % (300 mg): (6.8) %
Heart rate increased, incidence n (300 mg): 4
Influenza, incidence % (300 mg): (1.7) %
Influenza, incidence n (300 mg): 1
Insomnia, incidence % (300 mg): (5.1) %
Insomnia, incidence n (300 mg): 3
Nasopharyngitis, incidence % (300 mg): (5.1) %
Nasopharyngitis, incidence n (300 mg): 3
Nausea, incidence % (300 mg): (16.9) %
Nausea, incidence n (300 mg): 10
Serious TEAEs, incidence n (300 mg): 0
Upper respiratory tract infection, incidence n (300 mg): 0
Weight Increased, incidence % (300 mg): (1.7) %
Weight Increased, incidence n (300 mg): 1
Weight decreased, incidence % (300 mg): (5.1) %
Weight decreased, incidence n (300 mg): 3
Discontinuations due to TEAEs compared with placebo (150 and 300 mg groups): greater than placebo
Anxiety, incidence % (All JZP-110): (5.1) %
Anxiety, incidence n (All JZP-110): 9
Any TEAE, incidence % (All JZP-110): (68.4) %
Any TEAE, incidence n (All JZP-110): 121
Constipation, incidence % (All JZP-110): (2.3) %
Constipation, incidence n (All JZP-110): 4
Decreased appetite, incidence % (All JZP-110): (10.7) %
Decreased appetite, incidence n (All JZP-110): 19
Diarrhea, incidence % (All JZP-110): (4.5) %
Diarrhea, incidence n (All JZP-110): 8
Discontinuations due to TEAEs, incidence % (All JZP-110): (5.1) %
Discontinuations due to TEAEs, incidence n (All JZP-110): 9
Dizziness, incidence % (All JZP-110): (3.4) %
Dizziness, incidence n (All JZP-110): 6
Dry mouth, incidence % (All JZP-110): (7.3) %
Dry mouth, incidence n (All JZP-110): 13
Dyspepsia, incidence % (All JZP-110): (3.4) %
Dyspepsia, incidence n (All JZP-110): 6
Fatigue, incidence % (All JZP-110): (2.8) %
Fatigue, incidence n (All JZP-110): 5
Headache, incidence % (All JZP-110): (21.5) %
Headache, incidence n (All JZP-110): 38
Heart rate increased, incidence % (All JZP-110): (2.3) %
Heart rate increased, incidence n (All JZP-110): 4
Influenza, incidence % (All JZP-110): (2.3) %
Influenza, incidence n (All JZP-110): 4
Insomnia, incidence % (All JZP-110): (2.8) %
Insomnia, incidence n (All JZP-110): 5
Nasopharyngitis, incidence % (All JZP-110): (9.0) %
Nasopharyngitis, incidence n (All JZP-110): 16
Nausea, incidence % (All JZP-110): (10.7) %
Nausea, incidence n (All JZP-110): 19
Serious TEAEs, incidence % (All JZP-110): (0.6) %
Serious TEAEs, incidence n (All JZP-110): 1
Upper respiratory tract infection, incidence % (All JZP-110): (2.8) %
Upper respiratory tract infection, incidence n (All JZP-110): 5
Weight Increased, incidence % (All JZP-110): (1.7) %
Weight Increased, incidence n (All JZP-110): 3
Weight decreased, incidence % (All JZP-110): (2.8) %
Weight decreased, incidence n (All JZP-110): 5

— patent publication US11865098B1, “Methods and compositions for treating excessive sleepiness” (Axsome Malta Ltd., priority 2017, dated 2024)
